Reference: patent publication US8404655B2, “Inhibition of palmitoyl acyl transferase expression and/or activity for the regulation of antiproliferative factor activity” (University of Florida Research Foundation, Inc., priority 2007, dated 2013)

What was measured:
E-cadherin mRNA = assay: Quantitative real-time PCR of E-cadherin mRNA in NB cells; type: cell-based, human; details: 2.5 nM APF alone or with nonsense siRNA, 48 hours
Description: (§1) RNA was assessed by visualization of the 28S/18S ribosomal RNA ratio on a 1% agarose gel, and total RNA concentration determined by measuring the absorbance of each sample at 260 nm and 280 nm using a Gene Quant RNA/DNA Calculator (Pharmacia Biotech). Quantitative real-time PCR for gene expression was performed using Quantitect Primers (Qiagen), SYBR Green RT-PCR kit reagents (Qiagen), and a Roche System II Light-Cycler (software version 3.5). Samples were tested in triplicate runs, and specific mRNA levels quantified and compared to mRNA levels for β-actin using real-time PCR analysis software from Applied Biosystems.

ZO-1 mRNA = assay: Quantitative real-time PCR of ZO-1 mRNA in NB cells; type: cell-based, human; details: 2.5 nM APF alone or with nonsense siRNA, 48 hours, normalized to β-actin
Description: as §1

vimentin mRNA = assay: Quantitative real-time PCR of vimentin mRNA in NB cells; type: cell-based, human; details: 2.5 nM APF alone or with nonsense siRNA, 48 hours, normalized to β-actin
Description: as §1

CKAP4/p63 = assay: Immunofluorescent localization of CKAP4/p63 in HeLa cells; type: cell-based, human; details: APF 20 nM, 48 hours
Description: Double stranded siRNA targeting ZDHHC2 was purchased from Dharmacon. HeLa cells or cells explanted from IC patients (IC cells) were trypsinized for 10 minutes at room temperature, centrifuged in growth medium (MEM with 10% heat inactivated FBS, 1% antibiotic/antimycotics solution, and 1% L glutamine), and the cell pellet was resuspended in serum-free medium at a density of 1×10^4 cells/ml. One mL of the cell suspension was then transferred to a sterile 2 mm cuvette with 20 μM siRNA, and electroporated at 160 V/500 μF capacitance using a BioRad Gene Pulser Xcell. HeLa cells were then plated onto a 96 well plate for the thymidine incorporation assay, and both HeLa and IC cells were plated onto an 8 well Lab-Tek tissue culture slide for confocal microscopy.
For confocal microscopy, after 96 hours of incubation the medium was removed from the wells and cells were fixed using ethanol/acetone (1:1) for 15 min at room temperature, washed three times with 1×PBS, and incubated with mouse monoclonal anti-CKAP4/p63 antibodies (“anti-CLIMP-63”, clone G1/296; Alexis Biochemicals) in PBS, for 2 hrs at 37° C. Cells were then washed three times with PBS and further incubated with fluorescein isothiocyanate (FITC)-labeled secondary antibody diluted in PBS (goat anti-Mouse IgG 1:2000; Zymed) for 2 hrs at 37° C. […]

vimentin = assay: Western blot of vimentin protein in HeLa cells; type: cell-based, human; details: APF 20 nM, 48 hours
Description: Western Blot Analysis—Cells were lysed in ice-cold RIPA buffer containing protease inhibitors (Pierce), sonicated, and centrifuged for 15 minutes at 4° C. The supernatant protein concentration was measured using a Folin reagent-based protein assay kit (BioRad). Proteins were separated by electrophoresis using 4-12% NuPAGE Novex Bis-Tris polyacrylamide gels in MOPS running buffer (Invitrogen) and then transferred to nitrocellulose. Membranes were blocked for 2 hours at room temperature in TBST buffer (Tris-buffered saline, pH 7.4, with 0.1% Tween 20) containing 5% nonfat milk and incubated with specific antibodies against vimentin (diluted 1:2000; BD Pharmingen) or ZO-1 (diluted 1:125; Zymed) overnight at 4° C. The membranes were subsequently washed with TBST, incubated for 1 hour at room temperature in HRP-conjugated goat anti-mouse (diluted 1:4000, Santa Cruz Biotechnology) or goat anti-rabbit (diluted 1:10000; Pierce) secondary antibodies, and developed by enhanced chemiluminescence (Pierce). To assess equal loading of protein, the membranes were stripped and reprobed for β-actin (diluted 1:5000; Sigma). […] The protein bands of interest were quantified using ImageJ and the integrated signal densities normalized first to β-actin (the loading control) and subsequently expressed in terms of the fractional abundance relative to untreated control cells.

HeLa cells = assay: 3H-thymidine incorporation (cell proliferation), HeLa cells; type: cell-based, human; details: APF 0.25-250 nM, 48 hours, serum starvation
Description: Cell proliferation was measured by 3H-thymidine incorporation into ZDHHC2 siRNA-treated HeLa cells. Briefly, electroporated cells that received ZDHHC2 or control nonsense siRNA were plated into 96 well culture plates and incubated at 37° C. in a 5% CO2 atmosphere for 96 hours. Purified lyophilized synthetic APF was re-suspended in acetonitrile/distilled water (1:1), diluted in serum-free MEM (containing only glutamine and antibiotics/antimycotics), and applied to HeLa cells; cell controls received acetonitrile/distilled water diluted in serum-free MEM alone. Cells were then incubated for an additional 48 hours. The cell contents were harvested and methanol-fixed onto glass fiber filter paper, and the amount of radioactivity incorporated determined. Significant inhibition of ^3H-thymidine incorporation was defined as a mean decrease in counts per minute of greater than 2 standard deviations from the mean of control cells for each plate.
siRNA—Double-stranded siRNA targeting ZDHHC2 (available from GenBank/EMBL/DDBJ under accession no. NM_016353) was purchased from Dharmacon (ON-TARGET plus). […]
^3H-Thymidine Incorporation—Cell proliferation was measured by 3H-thymidine incorporation into the DNA of HeLa or NB epithelial cells. […] The cell contents were harvested and methanol-fixed onto glass fiber filter paper, and the amount of radioactivity incorporated determined. […]

[1] = tested on: normal primary bladder (NB) epithelial cells; assay: 3H-thymidine incorporation (cell proliferation), NB epithelial cells; type: cell-based, human; details: APF 0.25-250 nM, 48 hours, serum starvation
Description: Normal primary bladder (NB) epithelial cells were isolated from patients as previously described (Conrads et al., 2006; Keay et al., 2000; Keay et al., 2004; Keay et al., 1996). Cells were propagated in DMEM-F12 (Media-Tech) with 10% heat inactivated FBS, 1% antibiotic/antimycotic solution, 1% L-glutamine, 0.25 U/ml insulin (Sigma), and 5 ng/ml human epidermal growth factor (R & D Systems) at 37° C. in a 5% CO2 atmosphere, and characterized by binding of AE-1/AE-3 pancytokeratin antibodies (Signet) as previously described (Keay et al., 1996; Keay et al., 2004).
^3H-Thymidine Incorporation—Cell proliferation was measured by 3H-thymidine incorporation into the DNA of HeLa or NB epithelial cells. […] Cells were then incubated at 37° C. in a 5% CO2 atmosphere for 48 hours. The cell contents were harvested and methanol-fixed onto glass fiber filter paper, and the amount of radioactivity incorporated determined. Significant inhibition of ^3H-thymidine incorporation was defined as a mean decrease in counts per minute of greater than 2 standard deviations from the mean of control cells for each plate.

bladder epithelial cell = details: cited from earlier work

Q: Which results are given for “Sialoglycopeptide: sialic acid α-2,3 galactose β1-3-N-acetylgalactosamine α-O-linked to N-terminal threonine of Frizzled 8 nonapeptide (TVPAAVVVA) [APF, antiproliferative factor]”?
A: change of E-cadherin mRNA levels (E-cadherin mRNA): dramatically increased; reduction of ZO-1 mRNA levels (ZO-1 mRNA): ~93%; reduction of vimentin mRNA levels (vimentin mRNA): ~97%; CKAP4 localization after APF treatment (CKAP4/p63): translocated to the nucleus and nucleolus; expression of vimentin following APF treatment (vimentin): reduced; inhibition of HeLa cell proliferation (3H-thymidine incorporation) (HeLa cells): concentration dependent manner; inhibition of NB cell proliferation (3H-thymidine incorporation) [1]: concentration dependent manner; EC50 (potency of APF) (bladder epithelial cell): picomolar range
